Usually IC50 stands for the point on the concentration scale where inhibition reaches its midpoint.

Each structure is given as a SMILES string. Structures can show the parent of a compound that is named as a salt. Bounds are passed on as bounds.

For series [1] the following is noted: cited from earlier work.
The subject of series [2] is recurrent herpes simplex virus infections. As to conditions: cited from earlier work; for Healing time: topical treatment, recurrent cutaneous virus diseases.
The next series relates to Kaposi's sarcoma. As to conditions: intravenous treatment; cited from earlier work.
For the next series, the system named is HIV. As to conditions: in vitro; cited from earlier work.
The nature of series [3]: Test 5. Cytotoxicity of liposomal foscarnet (PBMC growth). Conditions: human PBMC, cell counter, read-out: Cytotoxicity, CIC50 (cell growth inhibitory concentration). The format is cell-based. The procedure: Liposomes were prepared according to Formulation 7 above and the cytotoxic effects thereof tested using human peripheral blood mononuclear cells (PBMC) as previously described (method according to Palmer, S., et al., Aids Research and Human Retroviruses, Vol.11, No. 10, 1995 with some modifications). The PBMCs were incubated with the drugs in medium for 72 h and cell growth was measured in an automatic cell counter. Above 10 000 μM the liposomes themselves interfered with the cell counting.

In series [4] the test system is reverse transcriptase of HIV. Conditions: cited from earlier work.
Series [5] has as its system herpes simplex virus type 1 (strain R39). The experiment in a line: Test 4. Antiviral effect of liposomal foscarnet on HSV-1 (HL cells, ELISA). Format: cell-based, HSV-1; human lung fibroblast (HL) cells. Conditions: Human alphaherpesvirus 1, 24 h, read-out: Antiviral effect on HSV-1, IC50. The method, then: Liposomes were constructed according to Formulations 7 and 8. The liposomes were not purified from the surrounding foscarnet-containing medium and antiviral effects by the liposomes might therefore be underestimated by cell culture assays. Antiviral effects of liposomes against herpes simplex virus type 1 were tested using previously published methods (Abele, G., et al., Antiviral Chemistry & Chemotherapy (1991) 2(3), 163-169) with some modifications. Confluent human lung fibroblast (HL) cells were infected with HSV-1 (strain R39) for one hour at 37° C. The virus inoculum was removed, and various dilutions of foscarnet-loaded liposomes, empty liposomes or foscarnet in medium were added. After 24 h the cells were lysed by addition of Triton X100, subjected to a freeze-thaw cycle, and the cell lysates tested for viral replication in an HSV-1-specific ELISA. The results obtained at a virus dilution of 1:500 and an incubation time of 24 h are stated in the following Table 4.
(In general: ELISA stands for enzyme-linked immunosorbent assay.)

The conditions of series [6]: phospholipid liposomes; WO 89/05152; cited from earlier work.
The conditions of series [7]: topical, 3% formulation; cited from earlier work.
Series [8] in a line: Systemic uptake of topically applied foscarnet (previous research). Conditions: about 100 mg of 5% foscarnet cream (about 5 mg foscarnet). The format is in vivo.
For the next series, the system named is human herpesvirus. Conditions: in vitro; cited from earlier work.

Consider `Nc1nc2c(ncn2COCCO)c(=O)[nH]1` [acyclovir, 9-[(2-hydroxyethoxy)methyl]guanine], for which the “Adverse effects of therapy” value in [1] (human, in vivo) is reported as “very few adverse effects”. The Healing time entry in series [2] is listed as “only reduced by approximately one day”.
For the compound `CC(=O)OCC(CCn1cnc2cnc(N)nc21)COC(C)=O` [famciclovir], in series [2], the Healing time result was “only reduced by approximately one day”.
Consider `O=C(O)P(=O)(O)O` [foscarnet, trisodium salt of phosphonoformic acid, hexahydrate], for which, in the series with Kaposi's sarcoma, the “Response of Kaposi's sarcoma patients” value is reported as “some patients have responded”. In addition, the “Antiviral activity against replication of HIV (in words)” value in the series with HIV is listed as “shows antiviral activity against the replication of HIV in vitro”. Besides, the “Side-effect of intravenous treatment” value in [1] (intravenous, CMV retinitis and acyclovir-resistant HSV in AIDS patients) was “renal function impairment”. Also, the “Healing time of lesions” value in [2] (topical, conventional cream, recurrent HSV, immunocompetent patients) is reported as “shortened by approximately one day”. Moreover, the CC50 at 72 h in series [3] is 2460 µM. Further, the “Inhibition of reverse transcriptase of HIV (in words)” value in series [4] is “inhibits the reverse transcriptase of HIV”. Besides, in [5], the 50% inhibitory concentration (IC50) stood at 151 µM. The “Intracellular antiviral activity in liposome-encapsulated form” value in series [6] is given as “several-fold higher intracellular antiviral activity”. Besides, in series [7], the “Irritation of mucous membranes or the skin” value is given as “known to cause irritation of mucous membranes or the skin”. In [8], the “Amount entering the systemic circulation per application” value is on record as ≤ 0.25 mg per application. The “Activity against human herpesvirus (in words)” value in the series with human herpesvirus was “proven activity against all human herpesvirus in vitro”.
With `Nc1nc2c(ncn2CCC(CO)CO)c(=O)[nH]1` [penciclovir, 9-(4-hydroxy-3-hydroxymethylbut-1-yl)-guanine], in [2], the Healing time entry was “only reduced by approximately one day”.
Consider `CC(C)[C@H](N)C(=O)OCCOCn1cnc2c(=O)[nH]c(N)nc21` [valaciclovir, L-valyl acyclovir], for which, in series [2], the Healing time result was “only reduced by approximately one day”.

Source of the values: patent US6117857A, “Pharmaceutical composition” (priority 1995, dated 2000).
